Data on two molecules can be found in patent US10016423B2, “Solid forms of nilotinib hydrochloride” (Apotex Inc., priority 2014, dated 2018).

The nature of the data set: Comparative hygroscopicity testing (water content by Karl Fischer analysis). The format is physicochemical. Particulars: for Water content of sample after testing: after 24 hours at 25° C. in desiccator containing saturated ammonium sulphate solution, 1 g sample in unstoppered vessel, KF analysis; for Increase in water content: after vs before 24 hours at 25° C. over saturated ammonium sulphate solution; for Water content of sample before testing: before hygroscopicity testing, Karl Fischer (KF) analysis. As to the method: The hygroscopicity of form APO-III as reported in WO 2014/059518 A1 was compared with the hygroscopicity of the form APO-VII of the present invention.
The hygroscopicity testing was conducted by placing 1 g of each sample in an unstoppered weighing vessel in a desiccator containing a saturated ammonium sulphate solution. The desiccator was placed in an oven at 25° C. for 24 hours. The water content was measured before and after the testing by Karl Fischer (KF) analysis.

For `Cc1cn(-c2cc(NC(=O)c3ccc(C)c(Nc4nccc(-c5cccnc5)n4)c3)cc(C(F)(F)F)c2)cn1.Cl` [Form APO-III], the “Water content of sample after testing” value was 3.5671 % w/w, the “Increase in water content” value is 3.2795 and the “Water content of sample before testing” value was 0.2876 % w/w.
The matching figures for `Cc1cn(-c2cc(NC(=O)c3ccc(C)c(Nc4nccc(-c5cccnc5)n4)c3)cc(C(F)(F)F)c2)cn1.Cl` [Form APO-VII]: 0.4757 % w/w, 0.1812 and 0.2945 % w/w.
